This note sets out measurements from ChEMBL document CHEMBL1143803, “Syntheses, characterization and in vitro antiamoebic activity of new Pd(II) complexes with 1-N-substituted thiocarbamoyl-3,5-diphenyl-2-pyrazoline derivatives” (Eur J Med Chem, 2007).

The test system of this experiment is Entamoeba histolytica. The experiment is described as follows: Antiamoebic activity against Entamoeba histolytica HM-1:IMSS after 72 hrs. The format is functional, organism-based.
What is called IC50 is the concentration that inhibits the measured activity by half. A high value points to weaker potency in that assay. `S=C(N1CCCc2ccccc21)N1N=C(c2ccccc2)CC1c1ccccc1` (stereo not drawn): it took 450 nM to reach half-maximal inhibition (IC50).

Compound `S=C(N1CCN(c2ccccc2)CC1)N1N=C(c2ccccc2)CC1c1ccccc1` (stereo not drawn) yielded a half-maximal inhibitory concentration (IC50) of 1800 nM.

Regarding `S=C(N1CCC(Cc2ccccc2)CC1)N1N=C(c2ccccc2)CC1c1ccccc1` (stereo not drawn), half-maximal inhibition (IC50) required 1600 nM.

In the case of `CN(Cc1ccccc1)C(=S)N1N=C(c2ccccc2)CC1c1ccccc1` (stereo not drawn), the concentration for half-maximal inhibition (IC50) came out at 2800 nM.

`Cc1cccc(NC(=S)N2N=C(c3ccccc3)CC2c2ccccc2)c1` (stereo not drawn) came in with an IC50 of 10700 nM.

With `Cc1ccc(NC(=S)N2N=C(c3ccccc3)CC2c2ccccc2)cc1` (stereo not drawn), the IC50 is 380 nM.

In turn, `Cc1ccccc1NC(=S)N1N=C(c2ccccc2)CC1c1ccccc1` (stereo not drawn) showed a half-maximal inhibitory concentration (IC50) of 4790 nM.

As for `S=C(NCc1ccccc1Cl)N1N=C(c2ccccc2)CC1c1ccccc1` (stereo not drawn), inhibition was half-maximal at 11000 nM (IC50).
